Legend:
Assay type in all cases: biochemical, Neurospora crassa
Head1/Neck3 = system: T1, Head1/Neck3; assay: coupled enzymatic steady-state ATPase assay; conditions: microtubule-activated (pig brain tubulin), 12.5 mM Aces-KOH, 25 mM potassium acetate, 5 mM MgCl2, EGTA, pH 6.8, 22°C; read-out: Steady state ATPase / KM,ATP
T1 construct: gene NcKin; fusion in one polypeptide: NcKin residues 1-342 (motor and neck-linker) replacing the N-terminal 427 residues of NcKin3_558; C-terminal PSIVHRKCF (cys) or hTail; dimer; with Kinesin-3 motor protein NcKin3
Source text: coupled enzymatic steady-state ATPase assay on Head1/Neck3

Head3/Neck1 [1] = system: T2, Head3/Neck1; assay: coupled enzymatic steady-state ATPase assay; conditions: microtubule-activated (pig brain tubulin), 12.5 mM Aces-KOH, 25 mM potassium acetate, 5 mM MgCl2, EGTA, pH 6.8, 22°C; read-out: Steady state ATPase / KM,ATP
T2 construct: gene NcKin3; fusion in one polypeptide: NcKin3 residues 1-429 (motor and neck-linker) replacing the head of NcKin436 (NcKin head elsewhere 1-342); C-terminal PSIVHRKCF (cys) or hTail; dimer; with Kinesin heavy chain
Source text: coupled enzymatic steady-state ATPase assay on Head3/Neck1

Head3/Neck1 [2] = system: T2, Head3/Neck1; assay: stopped-flow light scattering, ATP-induced microtubule detachment; conditions: dissociation of preformed apyrase-treated kinesin-microtubule complex, 0.4 µM complex, 0-1000 µM ATP; read-out: Detachment / K0.5,ATP
Source text: stopped-flow light scattering, ATP-induced microtubule detachment on Head3/Neck1

[3] = substrate: Nc1ncnc2c1ncn2[C@@H]1O[C@H](COP(=O)(O)OP(=O)(O)OP(=O)(O)O)[C@@H](O)[C@H]1O; assay: coupled enzymatic steady-state ATPase assay; conditions: microtubule-activated (pig brain tubulin), 12.5 mM Aces-KOH, 25 mM potassium acetate, 5 mM MgCl2, EGTA, pH 6.8, 22°C
Source text: coupled enzymatic steady-state ATPase assay on NcKin (NcKin436; wildtype reference)

| Km (Head1/Neck3) | Km (Head3/Neck1 [1]) | Km (Head3/Neck1 [2]) | Molecule | Km [3] | kcat [3] |
| --- | --- | --- | --- | --- | --- |
| 33.1 ± 4.6 µM | 49.1 ± 1.3 µM | 105 ± 26.6 µM | Nc1ncnc2c1ncn2[C@@H]1O[C@H](COP(=O)(O)OP(=O)(O)OP(=O)(O)O)[C@@H](O)[C@H]1O [ATP] | – | – |
| – | – | – | NcKin (NcKin436; wildtype reference) (Neurospora crassa OR74A) (protein, C-terminally truncated NcKin436 (motor, neck-linker, neck coiled coil, partial stalk), expressed from pT7 vector; C-terminal reactive-cysteine peptide … or hTail; dimer) MSSSANSIKVVARFRPQNRVEIESGGQPIVTFQGPDTCTVDSKEAQGSFTFDRVFDMSCKQSDIFDFSIKPTVDDILNGYNGTVFAYGQTGAGKSYTMMGTSIDDPDGRGVIPRIVEQIFTSILSSAANIEYTVRVSYMEIYMERIRDLLAPQNDNLPVHEEKNRGVYVKGLLEIYVSSVQEVYEVMRRGGNARAVAATNMNQESSRSHSIFVITITQKNVETGSAKSGQLFLVDLAGSEKVGKTGASGQTLEEAKKINKSLSALGMVINALTDGKSSHVPYRDSKLTRILQESLGGNSRTTLIINCSPSSYNDAETLSTLRFGMRAKSIKNKAKVNAELSPAELKQMLAKAKTQITSFENYIVNLESEVQVWRGGETVPKEKWVPPLELAITPSKSASTTARPSTPSRLLPESRAETPAISDRAGTPSLPLDKDE | 64.5 ± 20.4 µM | 66.9 ± 18.1 s⁻¹ |

Source: publication PMC2644789, “Dissection of Kinesin's Processivity” (PLoS ONE, 2009)
